Source: patent US20190175728A1, “NUCLEIC ACID-ANTIGEN PEPTIDE CONJUGATE” (NAPAJEN PHARMA, INC., priority 2017, published 2019)
No end group written: not given here.

Experiments:
[1] = tested on: OVA257-264 presenting cells (CFSE^high spleen cells); experiment: In vivo CTL assay; set-up: species or system C57BL/6J mice; details: target cells given day 7, counted after 24 hours
Protocol: SPG/dA40(S)-OVA257-264 (20, 100, 500 ng in the amount of OVA257-264) and CpG-dA40(S)/SPG (30 μg in the amount of CpG-dA) were intradermally administered to C57BL/6J mice.
On day 7 of administration, spleen cells were provided according to the following procedure. Spleen cells excised from normal C57BL/6J mice were treated with 10 μg/ml of OVA257-264 at 37° C. for 90 minutes. Thereafter, the spleen cells were washed three times with PBS, and the spleen cells were labeled with 5 μM carboxyfluorescein succinimidyl ester (CFSE); Invitrogen, Carlsbad, Calif.). Further, spleen cells not treated with OVA257-264 were similarly labeled with CFSE (0.5 μM). The labeled cells were washed three times with PBS. The spleen cells treated with OVA257-264 (CFSE^high) and the spleen cells not treated with OVA257-264 (CFSE^low) were mixed so that the number of the treated spleen cells was equal to the number of the untreated spleen cells. […] After that, the spleen cells were removed from the mice, and the CFSE-labeled cells were counted by flow cytometry.
OVA257-264 presenting cells were not observed when the dose of OVA257-264 was 100 ng/head or more. […] The difference in ability of inducing CTL reaction between SPG/dA40(S)-OVA257-264 and OVA257-264-click-dA40(S)/SPG was consistent with the result of Example 5 in which the antigen presenting ability was evaluated.

[2] = tested on: macrophages recovered from the peritoneal cavity; experiment: Antigen presenting ability of dA40(S)-peptide conjugates, fluorescence microscopy after anti-OVA257-264/H-2Kb PE staining; format: cell-based, C57BL/6J mice; details: conjugate 10 μM, 18 hours, 1.5×10^5 cells/well
Protocol: 3 ml of thioglycollate medium was administered to the peritoneal cavity of C57BL/6J mice 3 days later, macrophages were recovered from the peritoneal cavity. The resulting macrophages were seeded in 48 wells (1.5×10^5 cells/well), and further each of the dA40(S)-peptide conjugates was added to the wells at a concentration of 10 μM. […], the fixed cells were stained with Anti-Mouse OVA257-264 (SIINFEKL) peptide bound to H-2Kb PE, and the resulting cells were subjected to fluorescence microscopic observation.
In FIG. 3, pep(C)-dA40(S) represents a dA40(S)-peptide conjugate obtained by using peptide 1, dA40(S)-(C)pep represents a dA40(S)-peptide conjugate obtained by using peptide 2, dA40(S)-(C)pep long represents a dA40(S)-peptide conjugate obtained by using peptide 3, and dA40(S)-(C)pep long miss (L→K) represents a dA40(S)-peptide conjugate obtained by using peptide 4.

[3] = biological target: T1, murine endoplasmic reticulum aminopeptidase (Mus musculus, UniProt Q9EQH2); experiment: Cleavage of dA40(S)-peptide conjugate by endoplasmic reticulum aminopeptidase (polyacrylamide gel electrophoresis); format: biochemical; details: conjugate 1.5 μM, aminopeptidase 0.5 μg/ml, 25 mM Tris buffer pH 8.0, 37° C., 18 hours
T1 construct: purchased R & D Systems 2500-ZN
T1 sequence (Q9EQH2 1-930): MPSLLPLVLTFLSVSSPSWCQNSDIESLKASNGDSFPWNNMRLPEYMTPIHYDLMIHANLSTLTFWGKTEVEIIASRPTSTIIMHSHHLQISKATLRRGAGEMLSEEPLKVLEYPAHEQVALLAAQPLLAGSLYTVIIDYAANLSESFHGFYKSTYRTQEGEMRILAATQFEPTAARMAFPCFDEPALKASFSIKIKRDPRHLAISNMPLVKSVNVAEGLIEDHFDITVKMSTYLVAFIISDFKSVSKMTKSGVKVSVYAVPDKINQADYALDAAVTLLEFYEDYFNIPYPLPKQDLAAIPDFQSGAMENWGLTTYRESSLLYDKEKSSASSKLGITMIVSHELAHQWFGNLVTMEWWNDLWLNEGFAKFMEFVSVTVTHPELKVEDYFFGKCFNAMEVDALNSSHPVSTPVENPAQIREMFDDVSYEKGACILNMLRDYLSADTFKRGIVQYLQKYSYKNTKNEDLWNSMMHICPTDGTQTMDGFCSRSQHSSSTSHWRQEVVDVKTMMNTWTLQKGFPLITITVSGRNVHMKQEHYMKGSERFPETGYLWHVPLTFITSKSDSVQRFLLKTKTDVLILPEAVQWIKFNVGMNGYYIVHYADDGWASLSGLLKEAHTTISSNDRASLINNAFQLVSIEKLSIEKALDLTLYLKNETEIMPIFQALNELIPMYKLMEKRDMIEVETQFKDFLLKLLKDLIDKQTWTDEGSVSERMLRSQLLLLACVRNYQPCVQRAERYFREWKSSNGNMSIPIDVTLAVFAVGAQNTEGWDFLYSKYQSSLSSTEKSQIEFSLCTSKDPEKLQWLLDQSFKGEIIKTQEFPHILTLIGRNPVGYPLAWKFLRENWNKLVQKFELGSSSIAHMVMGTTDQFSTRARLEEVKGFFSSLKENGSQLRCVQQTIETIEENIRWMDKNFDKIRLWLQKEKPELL
Protocol: Each of the dA40(S)-peptide conjugates (1.5 μM) and murine endoplasmic reticulum aminopeptidase (0.5 μg/ml) (R & D Systems catalog Number 2500-ZN) were added to a 25 mM Tris buffer (pH 8.0) and the mixture was incubated at 37° C. for 18 hours. After completion of the reaction, polyacrylamide gel electrophoresis was carried out to observe the state of release from the dA40(S)-peptide conjugate.
In FIG. 2, pep(C)-dA40(S) represents a dA40(S)-peptide conjugate obtained by using peptide 1, dA40(S)-(C)pep represents a dA40(S)-peptide conjugate obtained by using peptide 2, dA40(S)-(C)pep long represents a dA40(S)-peptide conjugate obtained by using peptide 3, and dA40(S)-(C)pep long miss (L→K) represents a dA40(S)-peptide conjugate obtained by using peptide 4. […] Aminopeptidase is one of the enzymes that trim antigen peptides to present the antigen peptides to MHC. Accordingly, it is important for antigen presentation using the dA40(S)-peptide conjugate that even in the case of the peptide in which polydeoxyadenine is bonded to the N-terminal cysteine, the C-terminal side is composed of the hydrophobic amino acid residue. This fact was confirmed.

[4] = tested on: macrophages recovered from the peritoneal cavity; experiment: Antigen presenting ability of SPG/dA40(S)-OVA257-264, flow cytometry after anti-OVA257-264/H-2Kb PE staining; format: cell-based, C57BL/6J mice; details: concentration of OVA257-264 5 μg/ml, 18 hours
Protocol: 3 ml of thioglycollate medium was administered to the peritoneal cavity of C57BL/6J mice 3 days later, macrophages were recovered from the peritoneal cavity. The resulting macrophages were seeded in 48 wells (1.5×10^5 cells/well), and further SPG/dA40(S)-OVA257-264, dA40(S)-OVA257-264, or OVA257-264-click-dA40(S)/SPG was added at a concentration of OVA257-264 of 5 μg/ml. […], the fixed cells were stained with Anti-Mouse OVA257-264 (SIINFEKL) peptide bound to H-2Kb PE, and the resulting cells were analyzed by flow cytometry.

[5] = biological target: T2, dA40(S)-peptide conjugate obtained by using peptide 1
T2 chain: SIINFEKLC

[6] = biological target: T3, dA40(S)-peptide conjugate obtained by using peptide 3
T3 chain: CQLESIINFEKL

[7] = biological target: T4, dA40(S)-peptide conjugate obtained by using peptide 2
T4 chain: CSIINFEKL

For “SPG/dA40(S)-OVA257-264: complex of dA40(S)-OVA257-264 and schizophyllan (SPG) (SIINFEKL; also: dA40(S) conjugate, site not given here, complex with schizophyllan (SPG); UniProt P01012 258-265, looked up, fragment)”, the “decrease in OVA257-264 presenting cells (CFSE^high spleen cells)” value ([1]; intradermal, 20, 100, 500 ng OVA257-264, together with CpG-dA40(S)/SPG 30 μg) was “observed depending on the dose of OVA257-264” and the “dose of OVA257-264 at which OVA257-264 presenting cells were not observed” value ([1]; intradermal, together with CpG-dA40(S)/SPG 30 μg) was at least 100 ng/head.

For “dA40(S)-(C)pep long miss (L→K): dA40(S) disulfide-bonded via LC-SPDP linker to N-terminal cysteine of peptide 4, CSIINFEKK (SEQ ID NO: 4) (cyclised or stapled)”, the “fluorescence of OVA257-264 (SIINFEKL) bound to H-2Kb (antigen presentation)” value [2] was “antigen presentation hardly occurred” and the “state of release from the dA40(S)-peptide conjugate after enzyme treatment” value [3] was “not recognized by the enzyme”.

With “dA40(S)-OVA257-264: conjugate of dA40(S) and ovalbumin antigen peptide OVA257-264 (SIINFEKL), prepared in the manner described in Example 1 (also: dA40(S) conjugate, site not given here; UniProt P01012 258-265, looked up, fragment)” the “antigen (OVA257-264) presentation level” value [4] was “the same as that of SPG/dA40(S)-OVA257-264”.

In the case of “pep(C)-dA40(S): dA40(S) disulfide-bonded via LC-SPDP linker to C-terminal cysteine of peptide 1, SIINFEKLC (SEQ ID NO: 1) (cyclised or stapled)”, the “fluorescence of OVA257-264 (SIINFEKL) bound to H-2Kb (antigen presentation)” value [2] is reported as “Very weak fluorescence” and the “state of release from the dA40(S)-peptide conjugate after enzyme treatment” value [3] is reported as “no change was observed in the electrophoretic distance”.

B1: murine endoplasmic reticulum aminopeptidase (R & D Systems catalog Number 2500-ZN) (protein)
chain: DIESLKASNGDSFPWNNMRLPEYMTPIHYDLMIHANLSTLTFWGKTEVEIIASRPTSTIIMHSHHLQISKATLRRGAGEMLSEEPLKVLEYPAHEQVALLAAQPLLAGSLYTVIIDYAANLSESFHGFYKSTYRTQEGEMRILAATQFEPTAARMAFPCFDEPALKASFSIKIKRDPRHLAISNMPLVKSVNVAEGLIEDHFDITVKMSTYLVAFIISDFKSVSKMTKSGVKVSVYAVPDKINQADYALDAAVTLLEFYEDYFNIPYPLPKQDLAAIPDFQSGAMENWGLTTYRESSLLYDKEKSSASSKLGITMIVSHELAHQWFGNLVTMEWWNDLWLNEGFAKFMEFVSVTVTHPELKVEDYFFGKCFNAMEVDALNSSHPVSTPVENPAQIREMFDDVSYEKGACILNMLRDYLSADTFKRGIVQYLQKYSYKNTKNEDLWNSMMHICPTDGTQTMDGFCSRSQHSSSTSHWRQEVVDVKTMMNTWTLQKGFPLITITVSGRNVHMKQEHYMKGSERFPETGYLWHVPLTFITSKSDSVQRFLLKTKTDVLILPEAVQWIKFNVGMNGYYIVHYADDGWASLSGLLKEAHTTISSNDRASLINNAFQLVSIEKLSIEKALDLTLYLKNETEIMPIFQALNELIPMYKLMEKRDMIEVETQFKDFLLKLLKDLIDKQTWTDEGSVSERMLRSQLLLLACVRNYQPCVQRAERYFREWKSSNGNMSIPIDVTLAVFAVGAQNTEGWDFLYSKYQSSLSSTEKSQIEFSLCTSKDPEKLQWLLDQSFKGEIIKTQEFPHILTLIGRNPVGYPLAWKFLRENWNKLVQKFELGSSSIAHMVMGTTDQFSTRARLEEVKGFFSSLKENGSQLRCVQQTIETIEENIRWMDKNFDKIRLWLQKEKPELL
With B1 the “release of dA40(S) from the conjugate, polyacrylamide gel electrophoresis after enzyme treatment” value (from here on “release of dA40(S) from the conjugate”) [5] was “no change was observed in the electrophoretic distance even when subjected to enzyme treatment”, the “release of dA40(S) from the conjugate” value [6] was “the peptide was almost completely released and a band of dA40(S) was observed” and the “release of dA40(S) from the conjugate” value [7] was “a band of dA40(S) was slightly observed after the enzyme treatment”.
